Measurements taken from patent publication US6361788B1, “Synergistic biocide composition” (Thor Chemie GmbH, priority 1997, dated 2002).

Assays:
Assay type in all cases: cell-based
Settings in all cases: for growth of the microorganism: MIT ppm = row head c0
Pseudomonas putida = assay: MIC and synergy of MIT and BIT in Müller-Hinton broth, 48 h; as to growth of the microorganism: key: growth of the microorganism took place (symbol '+'); or not (symbol '−')
Experimental: (§1) The synergy index is calculated according to the method of F. C. Kull et al., Applied Microbiology, Vol. 9 (1961), p. 538. Here the synergy index is calculated using the following formula:
(§2) Synergy index SI=Qa/QA+Qb/QB.
The synergy of the two active substances MIT and BIT against the microorganism Pseudomonas putida is shown as in Example 1.
The test batches again contained a Müller-Hinton broth as a nutrient medium. The cell density was 10^6 cells/mL. The incubation time was 48 h at 25° C. Each sample was incubated on an incubation shaker at 120 rpm.

Escherichia coli = assay: MIC and synergy of MIT and BIT in Müller-Hinton broth, 72 h; as to growth of the microorganism: key: growth of the microorganism took place (symbol '+'); or not (symbol '−')
Experimental: For this purpose, aqueous mixtures were produced with various concentrations of 2-methylisothiazolin-3-one (MIT) and 1,2-benzisothiazolin-3-one (BIT) and the activity of these mixtures on Escherichia coli (International Mycological Institute, Strain No. IMI 362054) was tested.
In addition to the biocide component and water, the aqueous mixtures contained a nutrient medium, namely a Müller-Hinton broth (commercial product “Merck No. 10393”). The cell density of Escherichia coli was 10^6 cells/mL. The incubation time was 72 h at 25° C. Each sample was incubated on an incubation shaker at 120 rpm.
as §1, §2
When the synergy index has the value 1, this means that there is an addition of the activity of the two biocides. When the synergy index has a value of less than 1, this means that a synergy of the two biocides exists.

Klebsiella pneumoniae = assay: as above; as to growth of the microorganism: key: growth of the microorganism took place (symbol '+'); or not (symbol '−')
Experimental: as §1, §2
The synergy of the two active substances MIT and BIT against the microorganism Klebsiella pneumoniae is shown as in example 1.
The test batches again contained a Müller-Hinton broth as a nutrient medium. The cell density was 10^6 cells/mL. The incubation time was 72 h at 25° C. Each sample was incubated on an incubation shaker at 120 rpm.

[1] = BIT share of the BIT/MIT mixture at MIC, 72 h

SMILES: O=c1[nH]sc2ccccc12 [BIT, 1,2-benzisothiazolin-3-one]
- MIC at Total concentration BIT + MIT Qa + Qb (Pseudomonas putida; 48 h): 60 ppm
- Qa/QA (Pseudomonas putida; 48 h): 1.00
- Synergy index Qa/QA + Qb/QB (Pseudomonas putida; 48 h): 1.00
- growth of the microorganism (Pseudomonas putida; BIT 0.5 ppm, 48 h): +
- growth of the microorganism (Pseudomonas putida; BIT 1 ppm, 48 h): +
- growth of the microorganism (Pseudomonas putida; BIT 2.5 ppm, 48 h): +
- growth of the microorganism (Pseudomonas putida; BIT 5 ppm, 48 h): +
- growth of the microorganism (Pseudomonas putida; BIT 7.5 ppm, 48 h): +
- growth of the microorganism (Pseudomonas putida; BIT 10 ppm, 48 h): +
- growth of the microorganism (Pseudomonas putida; BIT 15 ppm, 48 h): +
- growth of the microorganism (Pseudomonas putida; BIT 20 ppm, 48 h): +
- growth of the microorganism (Pseudomonas putida; BIT 25 ppm, 48 h): +
- growth of the microorganism (Pseudomonas putida; BIT 30 ppm, 48 h): +
- growth of the microorganism (Pseudomonas putida; BIT 40 ppm, 48 h): +
- growth of the microorganism (Pseudomonas putida; BIT 50 ppm, 48 h): +
- growth of the microorganism (Pseudomonas putida; BIT 60 ppm, 48 h): −
- growth of the microorganism (Pseudomonas putida; BIT 70 ppm, 48 h): −
- growth of the microorganism (Pseudomonas putida; BIT 80 ppm, 48 h): −
- MIC at BIT concentration Qa (Pseudomonas putida; BIT share of the BIT/MIT mixture at MIC, 48 h): 60 ppm
- MIC value (Pseudomonas putida; used alone, 48 h at 25° C.): 60 ppm
- MIC at Total concentration BIT + MIT Qa + Qb (Escherichia coli; 72 h): 25 ppm
- Qa/QA (Escherichia coli; 72 h): 1.00
- Synergy index Qa/QA + Qb/QB (Escherichia coli; 72 h, method of Kull): 1.00
- growth of the microorganism (Escherichia coli; BIT 1 ppm, 72 h): +
- growth of the microorganism (Escherichia coli; BIT 2.5 ppm, 72 h): +
- growth of the microorganism (Escherichia coli; BIT 5 ppm, 72 h): +
- growth of the microorganism (Escherichia coli; BIT 7.5 ppm, 72 h): +
- growth of the microorganism (Escherichia coli; BIT 10 ppm, 72 h): +
- growth of the microorganism (Escherichia coli; BIT 12.5 ppm, 72 h): +
- growth of the microorganism (Escherichia coli; BIT 15 ppm, 72 h): +
- growth of the microorganism (Escherichia coli; BIT 17.5 ppm, 72 h): +
- growth of the microorganism (Escherichia coli; BIT 20 ppm, 72 h): +
- growth of the microorganism (Escherichia coli; BIT 25 ppm, 72 h): −
- growth of the microorganism (Escherichia coli; BIT 30 ppm, 72 h): −
- growth of the microorganism (Escherichia coli; BIT 35 ppm, 72 h): −
- MIC at BIT concentration Qa (Escherichia coli; [1]): 25 ppm
- MIC value (Escherichia coli; used alone, 72 h at 25° C.): 25 ppm
- MIC at Total concentration BIT + MIT Qa + Qb (Klebsiella pneumoniae; 72 h): 25 ppm
- Qa/QA (Klebsiella pneumoniae; 72 h): 1.00
- Synergy index Qa/QA + Qb/QB (Klebsiella pneumoniae; 72 h): 1.00
- growth of the microorganism (Klebsiella pneumoniae; BIT 1 ppm, 72 h): +
- growth of the microorganism (Klebsiella pneumoniae; BIT 2.5 ppm, 72 h): +
- growth of the microorganism (Klebsiella pneumoniae; BIT 5 ppm, 72 h): +
- growth of the microorganism (Klebsiella pneumoniae; BIT 7.5 ppm, 72 h): +
- growth of the microorganism (Klebsiella pneumoniae; BIT 10 ppm, 72 h): +
- growth of the microorganism (Klebsiella pneumoniae; BIT 15 ppm, 72 h): +
- growth of the microorganism (Klebsiella pneumoniae; BIT 20 ppm, 72 h): +
- growth of the microorganism (Klebsiella pneumoniae; BIT 25 ppm, 72 h): −
- growth of the microorganism (Klebsiella pneumoniae; BIT 30 ppm, 72 h): −
- growth of the microorganism (Klebsiella pneumoniae; BIT 35 ppm, 72 h): −
- MIC at BIT concentration Qa (Klebsiella pneumoniae; [1]): 25 ppm
- MIC value (Klebsiella pneumoniae; used alone, 72 h at 25° C.): 25 ppm
